# Source: patent publication US5962487A, “Antipicornaviral compounds and methods for their use and preparation” (Agouron Pharmaceuticals, Inc., priority 1997, dated 1999)
# Key:
# ECHO-11 = experiment: Echovirus-11 MRC5 Cell Culture Assay; type: cell-based, Echovirus strain 11
# Experimental: (§1) The Echovirus strain 11 (ECHO-11) and Enterovirus strain 70 (ENT-70) were purchased from American Type Culture Collection (ATCC). Virus stocks were propagated and antiviral assays were performed in MRC5 cells (ATCC). Cells were grown in Minimal Essential Medium with 10% fetal bovine serum.
# (§2) The ability of compounds to protect cells against ECHO-11 or ENT-70 infection was measured by the XTT dye reduction method. Briefly, MRC5 cells were infected with ECHO-11 or ENT-70 at a multiplicity of infection (m.o.i.) of 0.0013 (ECHO-11) and 0.0017 (ENT-70) or mock-infected with medium only. Infected or uninfected cells were resuspended at 2×10^4 cells per mL and incubated with appropriate concentrations of drug. One day later, XTT/PMS was added to test plates, and the amount of formazan produced was quantified spectrophotometrically at 450/650 nm. The EC50 was calculated as the concentration of drug that increased the percentage of formazan production in drug-treated, virus-infected cells to 50% of that produced by drug-free, uninfected cells. The 50% cytotoxic dose (CC50) was calculated as the concentration of drug that decreased the percentage of formazan produced in drug-treated, uninfected cells to 50% of that produced in drug-free, uninfected cells. The therapeutic index (TI) was calculated by dividing the CC50 by the EC50.
# in vitro [1] = type: cell-based; details: human, mrc5 cells
# Experimental: as §1, §2
# MRC5 cells = experiment: in vitro; type: cell-based
# Experimental: as §1, §2
# in vitro [2] = type: cell-based; details: human, hi-hela cells
# Method in brief: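 HI-HeLa cells infected with HRV-14 at m.o.i. 0.13 or mock-infected, incubated with compounds for two days; XTT/PMS formazan read at 450/650 nm. EC50 as concentration restoring formazan to 50% of mock-infected level; CC50 from mock-infected cells; TI = CC50/EC50.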
# HRV-14 = experiment: Antirhinoviral HI-HeLa Cell Culture Assay (cell protection, XTT), HRV-14; type: cell-based, human rhinovirus; details: for TI: CC50/EC50, HRV serotype-14, 2880 min; for EC50: Rhinovirus B, HRV14, 48 h, HRV serotype-14 infected HI-HeLa cells, XTT, two days
# Method in brief: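 Read-out is XTT/PMS formazan at 450/650 nm, measured two days after compound exposure of HI-HeLa cells (8×10^5 cells/mL) infected at m.o.i. 0.13 or mock-infected. EC50: protection to 50% of compound-free mock-infected signal; CC50: 50% loss in mock-infected cells; TI is their ratio.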
# ENT-70 = experiment: Enterovirus-70 MRC5 Cell Culture Assay; type: cell-based, Enterovirus strain 70
# Experimental: as §1, §2
# CVA-21 = experiment: Anticoxsackieviral HI-HeLa Cell Culture Assay, CVA-21; type: cell-based, Coxsackie strain A-21
# Experimental: as §2, with “CVA-21” for “ECHO-11”, “CVB-3” for “ENT-70”, “HI-HeLa” for “MRC5”, “0.05 (CVA-21)” for “0.0013 (ECHO-11)”, “0.08 (CVB-3)” for “0.0017 (ENT-70)”, “4×10^4” for “2×10^4”
# (§3) The Coxsackie strains A-21 (CVA-21) and B-3 (CVB-3) were purchased from American Type Culture Collection (ATCC). Virus stocks were propagated and antiviral assays were performed in HI-HeLa cells (ATCC). Cells were grown in Minimal Essential Medium with 10% fetal bovine serum.
# [3] = target: T1, Rhinovirus 3C protease (RVP) serotype 16 (Human rhinovirus 16, UniProt Q82122); experiment: Inhibition of Rhinovirus Protease, serotype 16 (FRET assay); type: biochemical; details: enzyme start experiments, read-out: kobs/I
# T1 construct: Recombinant Rhinovirus 3C proteases from serotypes 14, 16, 2 or 89 were prepared; made in house
# T1 sequence (Q82122 1511-1693): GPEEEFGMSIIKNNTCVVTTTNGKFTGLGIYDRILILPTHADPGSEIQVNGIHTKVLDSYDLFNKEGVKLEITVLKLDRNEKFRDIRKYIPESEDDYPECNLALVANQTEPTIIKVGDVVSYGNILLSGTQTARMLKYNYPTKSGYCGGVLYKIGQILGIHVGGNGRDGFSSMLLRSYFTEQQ
# Experimental: (§4) Stock solutions (50 mM, in DMSO) of various compounds were prepared; dilutions were in the same solvent. Recombinant Rhinovirus 3C proteases from serotypes 14, 16, 2 or 89 were prepared by the following standard chromatographic procedures: (1) ion exchange using Q Sepharose Fast Flow from Pharmacia; (2) affinity chromatography using Affi-Gel Blue from Biorad; and (3) sizing using Sephadex G-100 from Pharmacia. Assays contained 2% DMSO, 50 mM tris pH 7.6, 1 mM EDTA, a compound at the indicated concentrations, approximately 1 μM substrate, and 50-100 nM protease. For Ki determinations, the compound and the enzyme were preincubated for 10 minutes at 30° C. prior to addition of the substrate (substrate start). The kobs/I values were obtained from reactions initiated by addition of enzyme rather than substrate. RVP activity is measured in the fluorescence resonance energy transfer assay. The substrate was (N-terminal) DABCYL-(Gly-Arg-Ala-Val-Phe-Gln-Gly-Pro-Val-Gly)-EDANS. In the uncleaved peptide, the EDANS fluorescence was quenched by the proximal DABCYL moiety. When the peptide was cleaved, the quenching was relieved, and activity was measured as an increase in fluorescence signal.
# (§5) In the above table, all data is for RVP serotype-14 unless otherwise noted in parentheses. All strains of human rhinovirus (HRV) were purchased from American Type Culture Collection (ATCC), except for serotype 14, which was produced from the infectious cDNA clone constructed and supplied to us by Dr. Roland Rueckert at the Institute for Molecular Virology, University of Wisconsin, Madison, Wis. The column designated INHIB represents the percent inhibition, with the concentration of the compound in μM indicated in parentheses, unless Ki was assigned as designated by (Ki), at 10 minute preincubation with 50 nM RVP prior to addition of substrate was used. The data in the column designated kobs/I was measured from progress curves in enzyme start experiments.
# [4] = target: T2, Rhinovirus 3C protease (RVP) serotype-14 (Human rhinovirus 14, UniProt P03303); experiment: Inhibition of Rhinovirus Protease, serotype 14 (FRET assay); type: biochemical; details: for Ki: RVP serotype-14, 10 minute preincubation with 50 nM RVP prior to addition of substrate, read-out: INHIB (Ki); for kinact/KI: read-out: kobs/I
# T2 construct: Recombinant Rhinovirus 3C proteases from serotypes 14, 16, 2 or 89 were prepared; made in house
# T2 sequence (P03303 1538-1719): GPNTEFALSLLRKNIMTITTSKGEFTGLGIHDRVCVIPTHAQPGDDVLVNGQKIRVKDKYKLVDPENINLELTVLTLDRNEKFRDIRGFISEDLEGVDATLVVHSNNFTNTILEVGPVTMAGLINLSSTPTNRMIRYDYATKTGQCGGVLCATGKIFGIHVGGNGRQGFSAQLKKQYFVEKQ
# Method in brief: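 Recombinant HRV 3C protease (50–100 nM) in 50 mM tris pH 7.6, 1 mM EDTA, 2% DMSO, with ~1 μM DABCYL-GRAVFQGPVG-EDANS FRET substrate; cleavage read as fluorescence increase. Ki: compound and enzyme preincubated 10 min at 30° C before substrate start; kobs/I from enzyme-start progress curves. Values are percent inhibition at stated μM, or Ki.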
# in vitro [5] = type: cell-based; details: human, hi-hela cells; remark: listed apart in the source
# Experimental: as §2, with “CVA-21” for “ECHO-11”, “CVB-3” for “ENT-70”, “HI-HeLa” for “MRC5”, “0.05 (CVA-21)” for “0.0013 (ECHO-11)”, “0.08 (CVB-3)” for “0.0017 (ENT-70)”, “4×10^4” for “2×10^4”
# as §3
# [6] = target: T3, Rhinovirus 3C protease (RVP) serotype 2 (Human rhinovirus 2, UniProt P04936); experiment: Inhibition of Rhinovirus Protease, serotype 2 (FRET assay); type: biochemical; details: enzyme start experiments, read-out: kobs/I
# T3 construct: Recombinant Rhinovirus 3C proteases from serotypes 14, 16, 2 or 89 were prepared; made in house
# T3 sequence (P04936 1508-1690): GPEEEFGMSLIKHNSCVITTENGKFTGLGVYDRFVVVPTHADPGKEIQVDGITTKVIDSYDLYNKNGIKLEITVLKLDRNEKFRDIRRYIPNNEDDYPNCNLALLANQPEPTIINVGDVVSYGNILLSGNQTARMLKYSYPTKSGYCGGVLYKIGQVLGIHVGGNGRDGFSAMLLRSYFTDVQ
# Experimental: as §4, §5
Structure (SMILES),"TI (ECHO-11; CC50/EC50, ECHO-11, 1440 min)","EC50 (ECHO-11; Echovirus, 24 h, ECHO-11 infection of MRC5 cells, XTT, one day) [µM]",CC50 at 24 h (in vitro [1]) [µM],CC50 (MRC5 cells) [µM],CC50 at 48 h (in vitro [2]) [µM],TI (HRV-14),EC50 (HRV-14) [µM],"TI (ENT-70; CC50/EC50, ENT-70, 1440 min)","EC50 (ENT-70; Enterovirus, 24 h, ENT-70 infection of MRC5 cells, XTT, one day) [µM]","EC50 (CVA-21; 24 h, CVA-21 infection of Hi-HeLa cells, XTT, one day) [µM]","TI (CVA-21; CC50/EC50, CVA-21)",kinact/KI [3] [M⁻¹ s⁻¹],Ki [4] [µM],kinact/KI [4] [M⁻¹ s⁻¹],CC50 at 24 h (in vitro [5]) [µM],kinact/KI [6] [M⁻¹ s⁻¹]
CCOC(=O)/C=C/[C@H](CCC(N)=O)NC(=O)[C@H](Cc1ccc(OC)cc1)N(C)C(=O)[C@H](CC(C)C)NC(=O)SCC [Compound 4],62.5,3.2,200,200,200,870,0.23,667,0.3,1.8,111,2010,2.9,43800,200,541
"CCOC(=O)/C=C/[C@H](CCC(N)=O)NC(=O)[C@H](Cc1ccc(C)cc1)N(C)C(=O)[C@H](CCc1ccccc1)NC(=O)SCc1ccccc1 [Compound 13, Ethyl-3-[Benzylthiocarbonyl-L-hPhe-L-N-Me-(4-Me-Phe)-L-Gln] -E-Propenoate]",–,–,–,–,17.8,148,0.12,–,–,–,–,11700,–,356000,–,3980
"CCOC(=O)/C(C)=C/[C@H](CCC(N)=O)NC(=O)[C@H](Cc1ccc(C)cc1)N(C)C(=O)[C@H](CCc1ccccc1)NC(=O)SCc1ccccc1 [Compound 14, Ethyl-2-Methyl-3-[Benylthiocarbonyl-L-hPhe-L-N-Me-(4-Me)-Phe-L-Gln]-E-Propenoate]",–,–,–,–,15.8,49,0.32,–,–,–,–,1800,0.8,56400,–,800
"CCOC(=O)/C=C/[C@H](CCC(N)=O)NC(=O)[C@H](Cc1ccccc1)N(C)C(=O)[C@H](CC(C)C)NC(=O)SCc1ccccc1 [Compound 15, Ethyl-3-(Benzylthiocarbonyl-L-Leu-L-N-Me-Phe-L-Gln)-E-Propenoate]",–,–,–,–,50.1,192,0.26,–,–,–,–,5600,2.5,36400,–,3500
"CCOC(=O)/C(C)=C/[C@H](CCC(N)=O)NC(=O)[C@H](Cc1ccccc1)N(C)C(=O)[C@H](CC(C)C)NC(=O)SCc1ccccc1 [Compound 16, Ethyl-2-Methyl-3-(Benzylthiocarbonyl-L-Leu-L-N-Me-Phe-L-Gln)-E-Propenoate]",–,–,–,–,32,19,1.7,–,–,–,–,1000,12,8300,–,600
